Data as given in ChEMBL document CHEMBL3046027, “In vitro and in vivo antifungal activity of synthetic pure isothiocyanates against Sclerotinia sclerotiorum” (Pest Manag Sci, 2011).

Tests used:
[1] = tested on: Sclerotinia sclerotiorum; test: Fungistatic activity in Sclerotinia sclerotiorum assessed as sclerotial viability measured at 20 degC after 5 days; type: functional, organism-based; settings: 120 h
[2] = tested on: Sclerotinia sclerotiorum; test: Fungistatic activity in Sclerotinia sclerotiorum assessed as inhibition of mycelial growth in volatile phase measured at 20 degC after 5 days; type: functional, organism-based; settings: 120 h
[3] = tested on: Sclerotinia sclerotiorum; test: Antifungal activity against Sclerotinia sclerotiorum assessed as inhibition of mycelial growth in volatile phase at 1024 umol/l measured at 20 degC after 5 days; type: functional; settings: 120 h, read-out: GI
[4] = tested on: Sclerotinia sclerotiorum; test: Antifungal activity against Sclerotinia sclerotiorum assessed as inhibition of mycelial growth in volatile phase at 73 umol/l measured at 20 degC after 5 days; type: functional; settings: 120 h, read-out: GI
[5] = tested on: Sclerotinia sclerotiorum; test: In vivo antifungal Sclerotinia sclerotiorum in Pepper (Capsicum annuum L. cv. Sera Demre) assessed as inhibition of mycelial growth in volatile phase at 146 umol/L measured after 10 to 14 weeks; type: functional
[6] = tested on: Sclerotinia sclerotiorum; test: Fungistatic activity in Sclerotinia sclerotiorum assessed as inhibition of mycelial growth in volatile phase at 732 umol/l measured at 20 degC after 5 days relative to control; type: functional; settings: 120 h, read-out: GI
[7] = tested on: Sclerotinia sclerotiorum; test: Antifungal activity against Sclerotinia sclerotiorum assessed as inhibition of germination in volatile phase at 731 umol/l measured at 20 degC after 5 days; type: functional; settings: 120 h
[8] = tested on: Sclerotinia sclerotiorum; test: Antifungal activity against Sclerotinia sclerotiorum assessed as inhibition of mycelial growth in contact phase at 1316 umol/l measured at 20 degC after 5 days; type: functional; settings: 120 h, read-out: GI
[9] = tested on: Sclerotinia sclerotiorum; test: Antifungal activity against Sclerotinia sclerotiorum assessed as inhibition of mycelial growth in volatile phase at 1460 umol/l measured at 20 degC after 5 days; type: functional; settings: 120 h, read-out: GI
[10] = tested on: Sclerotinia sclerotiorum; test: In vivo antifungal Sclerotinia sclerotiorum in Pepper (Capsicum annuum L. cv. Sera Demre) assessed as inhibition of mycelial growth in volatile phase at 292 umol/L measured after 10 to 14 weeks; type: functional
[11] = tested on: Sclerotinia sclerotiorum; test: Fungitoxic activity in Sclerotinia sclerotiorum assessed as viability in volatile phase at 731 umol/l measured at 20 degC after 5 days relative to control; type: functional; settings: 120 h, read-out: GI
[12] = tested on: Sclerotinia sclerotiorum; test: Antifungal activity against Sclerotinia sclerotiorum assessed as inhibition of mycelial growth in contact phase at 1462 umol/l measured at 20 degC after 5 days; type: functional; settings: 120 h, read-out: GI
[13] = tested on: Sclerotinia sclerotiorum; test: Fungistatic activity in Sclerotinia sclerotiorum assessed as inhibition of carpogenic germination in volatile phase at 146 umol/l measured at 20 degC after 5 days relative to control; type: functional; settings: 120 h
[14] = tested on: Sclerotinia sclerotiorum; test: Fungistatic activity in Sclerotinia sclerotiorum assessed as inhibition of carpogenic germination in volatile phase at 73 umol/l measured at 20 degC after 5 days relative to control; type: functional; settings: 120 h
[15] = tested on: Sclerotinia sclerotiorum; test: Antifungal activity against Sclerotinia sclerotiorum assessed as inhibition of mycelial growth in contact phase at 4387 umol/l measured at 20 degC after 5 days; type: functional; settings: 120 h, read-out: GI
[16] = tested on: Sclerotinia sclerotiorum; test: Antifungal activity against Sclerotinia sclerotiorum assessed as inhibition of mycelial growth in contact phase at 1024 umol/l measured at 20 degC after 5 days; type: functional; settings: 120 h, read-out: GI
[17] = tested on: Sclerotinia sclerotiorum; test: Antifungal activity against Sclerotinia sclerotiorum assessed as inhibition of germination in volatile phase at 1462 umol/l measured at 20 degC after 5 days; type: functional; settings: 120 h
[18] = tested on: Sclerotinia sclerotiorum; test: Antifungal activity against Sclerotinia sclerotiorum assessed as inhibition of mycelial growth in contact phase at 2924 umol/l measured at 20 degC after 5 days; type: functional; settings: 120 h, read-out: GI
[19] = tested on: Sclerotinia sclerotiorum; test: Fungistatic activity in Sclerotinia sclerotiorum assessed as inhibition of carpogenic germination in volatile phase at 1460 umol/l measured at 20 degC after 5 days relative to control; type: functional; settings: 120 h
[20] = tested on: Sclerotinia sclerotiorum; test: Antifungal activity against Sclerotinia sclerotiorum assessed as inhibition of germination in volatile phase at 439 umol/l measured at 20 degC after 5 days; type: functional; settings: 120 h
[21] = tested on: Sclerotinia sclerotiorum; test: Fungitoxic activity in Sclerotinia sclerotiorum assessed as inhibition of mycelial growth in volatile phase at 1024 umol/l measured at 20 degC after 5 days relative to control; type: functional; settings: 120 h, read-out: GI
[22] = tested on: Sclerotinia sclerotiorum; test: Antifungal activity against Sclerotinia sclerotiorum assessed as inhibition of germination in volatile phase at 146 umol/l measured at 20 degC after 5 days; type: functional; settings: 120 h
[23] = tested on: Sclerotinia sclerotiorum; test: Antifungal activity against Sclerotinia sclerotiorum assessed as inhibition of germination in volatile phase at 73 umol/l measured at 20 degC after 5 days; type: functional; settings: 120 h
[24] = tested on: Sclerotinia sclerotiorum; test: Fungistatic activity in Sclerotinia sclerotiorum assessed as inhibition of mycelial growth in contact phase at 4387 umol/l measured at 20 degC after 5 days relative to control; type: functional; settings: 120 h, read-out: GI
[25] = tested on: Sclerotinia sclerotiorum; test: Fungistatic activity in Sclerotinia sclerotiorum assessed as inhibition of carpogenic germination in volatile phase at 732 umol/l measured at 20 degC after 5 days relative to control; type: functional; settings: 120 h
[26] = tested on: Sclerotinia sclerotiorum; test: Antifungal activity against Sclerotinia sclerotiorum assessed as inhibition of mycelial growth in volatile phase at 146 umol/l measured at 20 degC after 5 days; type: functional; settings: 120 h, read-out: GI
[27] = tested on: Sclerotinia sclerotiorum; test: Fungistatic activity in Sclerotinia sclerotiorum assessed as inhibition of mycelial growth in contact phase measured at 20 degC after 5 days; type: functional, organism-based; settings: 120 h
[28] = tested on: Sclerotinia sclerotiorum; test: Antifungal activity against Sclerotinia sclerotiorum assessed as inhibition of mycelial growth in volatile phase at 732 umol/l measured at 20 degC after 5 days; type: functional; settings: 120 h, read-out: GI

Work on `CN=C=S` [METHYLISOTHIOCYANATE] yielded an EC50 [1] of 336 µM, an EC50 [2] of 79 µM and an inhibition of growth at 1024 µM [3] of 100%. The inhibition of growth at 73 µM [4] was 34.7%, the inhibition in vivo at 146 µM [5] was 55% and the inhibition of growth at 732 µM [6] was 100%. The inhibition at 731 µM [7] was 100%, the inhibition of growth at 1316 µM [8] was 18.2% and the inhibition of growth at 1460 µM [9] was 100%. For the same compound, the inhibition in vivo at 292 µM [10] was 85%, the inhibition of growth at 731 µM [11] was 100% and the inhibition of growth at 1462 µM [12] was 54.7%. It also gave an inhibition at 146 µM [13] of 30%, an inhibition at 73 µM [14] of 30% and an inhibition of growth at 4387 µM [15] of 100%. The inhibition of growth at 1024 µM [16] was 10.8%, the inhibition at 1462 µM [17] was 100% and the inhibition of growth at 2924 µM [18] was 81.2%. It also gave an inhibition at 1460 µM [19] of 67.5%, an inhibition at 439 µM [20] of 66.7% and an inhibition of growth at 1024 µM [21] of 100%. The inhibition at 146 µM [22] was 6.7%, the inhibition at 73 µM [23] was 0% and the inhibition of growth at 4387 µM [24] was 100%. It also gave an inhibition at 732 µM [25] of 35%, an inhibition of growth at 146 µM [26] of 55.3% and an EC50 [27] of 168 µM. For the same compound, the inhibition of growth at 732 µM [28] was 100%.
